Paper PMC5050400 (Current Neuropharmacology, 2016)
Where a chain is given by its changes, count along the chain named. “And” between values parts separate entries of the source, which are not always exact repeats. Identical values can stand only once. Like-named read-outs stand apart in the source and are kept apart here.

Tests used:
β3(Y143W) receptor = details: β3(Y143W) homomeric receptor compared with wild-type; cited from earlier work
α1β2γ2L GABAA receptors = details: compared with propofol; cited from earlier work
[1] = biological target: T1, α1β3(Y143W) GABAA receptor (Homo sapiens, UniProt P14867+P28472, Y168W); experiment: Two-electrode voltage clamp activation of α1β3; assay type: cell-based; details: for Po,max^est / nH / d: α1β3(Y143W); for d: KO/KC, MWC fit
T1 sequence (P28472 26-473 Y168W): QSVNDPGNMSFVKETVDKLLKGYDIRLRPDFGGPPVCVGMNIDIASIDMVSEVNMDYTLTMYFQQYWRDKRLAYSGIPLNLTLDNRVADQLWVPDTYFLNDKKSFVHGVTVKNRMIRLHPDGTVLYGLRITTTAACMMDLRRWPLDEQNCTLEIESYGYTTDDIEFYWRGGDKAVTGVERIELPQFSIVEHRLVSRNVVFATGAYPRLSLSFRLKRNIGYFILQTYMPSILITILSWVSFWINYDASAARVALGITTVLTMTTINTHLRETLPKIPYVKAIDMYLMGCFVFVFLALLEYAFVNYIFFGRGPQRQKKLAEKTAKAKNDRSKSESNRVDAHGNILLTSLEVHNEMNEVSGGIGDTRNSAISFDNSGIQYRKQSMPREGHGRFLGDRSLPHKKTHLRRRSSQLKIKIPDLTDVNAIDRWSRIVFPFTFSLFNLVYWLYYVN
T1 sequence (P14867 28-456): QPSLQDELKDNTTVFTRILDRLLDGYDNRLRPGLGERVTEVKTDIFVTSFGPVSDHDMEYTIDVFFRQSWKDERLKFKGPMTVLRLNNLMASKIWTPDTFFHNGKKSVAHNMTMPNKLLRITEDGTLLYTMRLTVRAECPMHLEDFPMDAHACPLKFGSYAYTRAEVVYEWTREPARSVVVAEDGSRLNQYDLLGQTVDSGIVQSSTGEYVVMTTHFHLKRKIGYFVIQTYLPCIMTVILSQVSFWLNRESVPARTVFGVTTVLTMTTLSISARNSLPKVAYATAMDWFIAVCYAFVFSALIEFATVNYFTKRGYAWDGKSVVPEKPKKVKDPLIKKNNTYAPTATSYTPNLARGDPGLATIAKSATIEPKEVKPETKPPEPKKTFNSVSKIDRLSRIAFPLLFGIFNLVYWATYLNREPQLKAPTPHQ

[2] = biological target: T2, α1β3(M286W+Q224W) GABAA receptor (Homo sapiens, UniProt P14867+P28472, M311W/Q249W); experiment: cell-based
T2 sequence (P28472 26-473 Q249W/M311W): T1 sequence (P28472 26-473 Y168W) with W143Y, Q224W, M286W
T2 sequence (P14867 28-456): T1 sequence (P14867 28-456)

[3] = biological target: T3, α1β3(Q224W) GABAA receptor (Homo sapiens, UniProt P14867+P28472, Q249W); experiment: Two-electrode voltage clamp activation of α1β3; assay type: cell-based; details: for Po,max^est / nH / d: α1β3(Q224W); for d: KO/KC, MWC fit
T3 sequence (P28472 26-473 Q249W): T1 sequence (P28472 26-473 Y168W) with W143Y, Q224W
T3 sequence (P14867 28-456): T1 sequence (P14867 28-456)

[4] = biological target: T4, α1β3(M286W) GABAA receptor (Homo sapiens, UniProt P14867+P28472, M311W); experiment: Two-electrode voltage clamp activation of α1β3; assay type: cell-based; details: for Po,max^est / nH / d: α1β3(M286W); for d: KO/KC, MWC fit
T4 sequence (P28472 26-473 M311W): T1 sequence (P28472 26-473 Y168W) with W143Y, M286W
T4 sequence (P14867 28-456): T1 sequence (P14867 28-456)

[5] = biological target: T5, α1β3(M286W+Y143W) GABAA receptor (Homo sapiens, UniProt P14867+P28472, M311W/Y168W); experiment: Two-electrode voltage clamp activation of α1β3; assay type: cell-based; details: for Po,max^est / nH / d: α1β3(M286W+Y143W); for d: KO/KC, MWC fit
T5 sequence (P28472 26-473 Y168W/M311W): T1 sequence (P28472 26-473 Y168W) with M286W
T5 sequence (P14867 28-456): T1 sequence (P14867 28-456)

[6] = biological target: T6, α1β3(F221W) GABAA receptor (Homo sapiens, UniProt P14867+P28472, F246W); experiment: Two-electrode voltage clamp activation of α1β3; assay type: cell-based; details: for Po,max^est / nH / d: α1β3(F221W); for d: KO/KC, MWC fit
T6 sequence (P28472 26-473 F246W): T1 sequence (P28472 26-473 Y168W) with W143Y, F221W
T6 sequence (P14867 28-456): T1 sequence (P14867 28-456)

[7] = biological target: T7, α1β3(M286W+F221W) GABAA receptor (Homo sapiens, UniProt P14867+P28472, F246W/M311W); experiment: Two-electrode voltage clamp activation of α1β3; assay type: cell-based; details: for Po,max^est / nH / d: α1β3(M286W+F221W); for d: KO/KC, MWC fit
T7 sequence (P28472 26-473 F246W/M311W): T1 sequence (P28472 26-473 Y168W) with W143Y, F221W, M286W
T7 sequence (P14867 28-456): T1 sequence (P14867 28-456)

α1β3 GABAA receptor = biological target: T8, α1β3 GABAA receptor (Homo sapiens, UniProt P14867+P28472); assay type: cell-based; details: for d / Po,max^est / nH: wild-type α1β3; for d: KO/KC, gating efficacy, MWC fit, n = 5 for propofol, 2 for GABA; for Po,max^est: estimated maximal open probability at saturating agonist; for nH: slope of concentration-response curve
T8 sequence (P28472 26-473): T1 sequence (P28472 26-473 Y168W) with W143Y
T8 sequence (P14867 28-456): T1 sequence (P14867 28-456)

SMILES	activation of the mutant receptor (β3(Y143W) receptor)	Po,max^est [1]	nH [1]	d [1]	Po,max^est [3]	nH [3]	d [3]	Po,max^est [4]	nH [4]	d [4]	Po,max^est [5]	nH [5]	d [5]	Po,max^est [6]	nH [6]	d [6]	Po,max^est [7]	nH [7]	d [7]	d (α1β3 GABAA receptor)	other results
CC(C)c1ccccc1O [2-isopropylphenol]	unchanged	–	–	–	–	–	–	–	–	–	–	–	–	–	–	–	–	–	–	–	–
Cc1cccc(C)c1O [2,6-dimethylphenol]	unchanged	–	–	–	–	–	–	–	–	–	–	–	–	–	–	–	–	–	–	–	–
CC(C)c1ccc(C2(C(F)(F)F)N=N2)cc1O [meta-azipropofol, 2-isopropyl-5-[3-(trifluoromethyl)-3H-diazirin-3-yl]phenol]	–	–	–	–	–	–	–	–	–	–	–	–	–	–	–	–	–	–	–	–	degree of potentiation (α1β2γ2L GABAA receptors): somewhat smaller degree of potentiation
CC(C)c1cccc(C(C)C)c1O [Propofol, 2,6-diisopropylphenol]	–	1	1.6±0.1	0.27±0.03	1	2.9±0.6	0.04±0.05	0.33±0.04	2.8±0.3	0.27±0.01	0.64±0.02	1.5±0.2	0.93±0.01	1	1.9±0.3	0.23±0.01	0.60±0.04	1.1±0.1	0.84±0.01	0.24±0.01	EC50 [1]: 12.8 ± 2.9 µM; Kd [1]: 23 ± 6 µM; EC50 [2]: 69 ± 9 µM; Kd [2]: 61 ± 14 µM; Po,max^est [2]: 0.11±0.01; d [2]: 0.58±0.01; nH [2]: 1.9±0.1; EC50 [3]: 50 ± 2 µM; Kd [3]: 336 ± 435 µM; EC50 [4]: 14 ± 0.7 µM; Kd [4]: 6 ± 1.4 µM; EC50 [5]: 1.6 ± 0.2 µM; Kd [5]: 1.4 ± 0.3 µM; EC50 [6]: 5 ± 0.5 µM; Kd [6]: 13.1 ± 1.5 µM; EC50 [7]: 6.6 ± 0.8 µM; Kd [7]: 5.7 ± 1.6 µM; EC50 (α1β3 GABAA receptor; EC50, wild-type α1β3, direct activation, mean ± S.E.M., at least 4 cells): 13 µM and 12.5 µM; Po,max^est (α1β3 GABAA receptor): 0.50±0.02; nH (α1β3 GABAA receptor): 1.7±0.3
NCCCC(=O)O [GABA, γ-aminobutyric acid]	–	1	1.7±0.1	0.02±0.001	0.24±0.03	1.0±0.1	0.06±0.01	0.94±0.01	1.8±0.2	0.005±0.002	0.96±0.09	0.8±0.1	0.08±0.05	1	1.5±0.1	0.03±0.02	1	1.1±0.1	0.07±0.05	0.02±0.001	Po,max^est ([2]; α1β3(M286W+Q224W)): 0.87±0.02; nH ([2]; α1β3(M286W+Q224W)): 1.1±0.1; d ([2]; α1β3(M286W+Q224W), KO/KC, MWC fit): 0.04±0.004; Po,max^est (α1β3 GABAA receptor): 0.65±0.04; nH (α1β3 GABAA receptor): 1.5±0.1
